Measured values reported in paper PMC5371393 (Journal of Medicinal Chemistry, 2016).

Experiments:
[1] = biological target: nucleotide-binding domain (NBD) of human HSC70 (HSC70-NBD residues 1–381) (Homo sapiens, UniProt P11142); assay: SPR affinity against immobilised HSC70-NBD; details: for fold increase in affinity compared to adenosine 1: comparator adenosine 1; for binding / affinity in words: SPR, HSC70-NBD, concentrations up to 1 mM; for fold improvement in affinity compared to 8-N-methylaminoadenosine 4: comparator 4 (Table 1, entry 2)
Chain of nucleotide-binding domain (NBD) of human HSC70 (HSC70-NBD residues 1–381) (P11142 1-381): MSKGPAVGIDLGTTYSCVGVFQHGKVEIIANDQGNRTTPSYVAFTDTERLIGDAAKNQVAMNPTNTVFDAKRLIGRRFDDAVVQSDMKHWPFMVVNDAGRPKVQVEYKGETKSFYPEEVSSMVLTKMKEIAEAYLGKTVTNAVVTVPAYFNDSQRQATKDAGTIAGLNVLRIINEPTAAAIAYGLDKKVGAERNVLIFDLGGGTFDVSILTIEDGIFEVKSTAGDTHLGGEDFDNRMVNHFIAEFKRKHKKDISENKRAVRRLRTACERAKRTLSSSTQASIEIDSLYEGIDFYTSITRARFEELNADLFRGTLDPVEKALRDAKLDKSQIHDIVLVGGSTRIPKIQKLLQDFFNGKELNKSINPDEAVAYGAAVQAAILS

HSP70 = details: previously described affinity of ADP for HSP70; cited from earlier work

## Nc1ncnc2c1nc(N)n2[C@@H]1O[C@H](CO)[C@@H](O)[C@H]1O [Compound 3, 8-aminoadenosine, reference compound]
[1]; SPR KD
  fold increase in affinity compared to adenosine 1: 16 fold

## CNc1nc2c(N)ncnc2n1[C@@H]1O[C@H](CO)[C@@H](O)[C@H]1O [Compound 4, (2R,3R,4S,5R)-2-(6-Amino-8-(methylamino)-9H-purin-9-yl)-5-(hydroxymethyl)tetrahydrofuran-3,4-diol]
[1]; SPR KD, comparator 3
  fold drop in affinity compared to 8-aminoadenosine 3: 2.5 fold

## COc1nc2c(N)ncnc2n1[C@@H]1O[C@H](CO)[C@@H](O)[C@H]1O [Compound 6, (2R,3R,4S,5R)-2-(6-Amino-8-methoxy-9H-purin-9-yl)-5-(hydroxymethyl)tetrahydrofuran-3,4-diol]
[1]
  binding / affinity in words: complete loss of activity

## CNc1nc2c(N)ncnc2n1[C@@H]1O[C@H](C)[C@@H](O)[C@H]1O [Compound 7, (2R,3R,4S,5R)-2-(6-Amino-8-(methylamino)-9H-purin-9-yl)-5-methyltetrahydrofuran-3,4-diol]
[1]; SPR KD, comparator 4
  fold drop in affinity compared with 8-N-methylaminoadenosine 4: 1.6 fold

## Nc1ncnc2c1ccn2[C@@H]1O[C@H](CO)[C@@H](O)[C@H]1O [Compound 8, Tubercidin, reference compound]
[1]; SPR KD
  fold increase in affinity compared to adenosine 1: 4 fold

## N#Cc1cn([C@@H]2O[C@H](CO)[C@@H](O)[C@H]2O)c2ncnc(N)c12 [Compound 9, Toyocamycin, reference compound]
[1]
  binding / affinity in words: comparable affinity to adenosine 1

## NC(=O)c1cn([C@@H]2O[C@H](CO)[C@@H](O)[C@H]2O)c2ncnc(N)c12 [Compound 10, Sangivamycin, reference compound]
[1]; SPR KD
  fold increase in affinity compared to adenosine 1: 35 fold
[1]; SPR off-rate analysis
  half-life: too short to be observed

## CNc1c(C#N)c2c(N)ncnc2n1[C@@H]1O[C@H](CO)[C@@H](O)[C@H]1O [Compound 12, 4-Amino-7-((2R,3R,4S,5R)-3,4-dihydroxy-5-(hydroxymethyl)tetrahydrofuran-2-yl)-6-(methylamino)-7H-pyrrolo[2,3-d]pyrimidine-5-carbonitrile]
[1]; SPR KD
  fold improvement in affinity compared to 8-N-methylaminoadenosine 4: 5 fold
[1]; SPR KD, comparator 9
  fold improvement in activity compared to toyocamycin 9: 27 fold

## CNc1c(C(N)=O)c2c(N)ncnc2n1[C@@H]1O[C@H](CO)[C@@H](O)[C@H]1O [Compound 13, 4-Amino-7-((2R,3R,4S,5R)-3,4-dihydroxy-5-(hydroxymethyl)tetrahydrofuran-2-yl)-6-(methylamino)-7H-pyrrolo[2,3-d]pyrimidine-5-carboxamide]
[1]; SPR KD, comparator 10
  fold drop in affinity compared to sangivamycin 10: 7 fold

## N#Cc1c(NCc2ccccc2)n([C@@H]2O[C@H](CO)[C@@H](O)[C@H]2O)c2ncnc(N)c12 [Compound 14, 4-Amino-6-(benzylamino)-7-((2R,3R,4S,5R)-3,4-dihydroxy-5-(hydroxymethyl)tetrahydrofuran-2-yl)-7H-pyrrolo[2,3-d]pyrimidine-5-carbonitrile]
[1]
  binding / affinity in words: little change in affinity

## Nc1ncnc2c1nc(NCc1ccccc1)n2[C@@H]1O[C@H](CO)[C@@H](O)[C@H]1O [Compound 15, (2R,3R,4S,5R)-2-(6-Amino-8-(benzylamino)-9H-purin-9-yl)-5-(hydroxymethyl)tetrahydrofuran-3,4-diol]
[1]; SPR KD
  fold improvement in affinity compared to 8-N-methylaminoadenosine 4: 12 fold

## Nc1ncnc2c1ncn2[C@@H]1O[C@H](COP(=O)(O)OP(=O)(O)O)[C@@H](O)[C@H]1O [Compound 16, adenosine diphosphate]
HSP70
  Kd: 500 nM

## Nc1ncnc2c1nc(NCc1ccc(Cl)cc1)n2[C@@H]1O[C@H](CO)[C@@H](O)[C@H]1O [Compound 18, (2R,3R,4S,5R)-2-(6-Amino-8-((4-chlorobenzyl)amino)-9H-purin-9-yl)-5-(hydroxymethyl)tetrahydrofuran-3,4-diol]
[1]; SPR KD
  fold improvement in affinity compared to 8-N-methylaminoadenosine 4: 60 fold
[1]; SPR KD, comparator 15
  fold improvement in affinity compared to compound 15: 5 fold
